One data set has as its target human BACE1 (Homo sapiens, UniProt P56817). Nature of the data set: BACE1 fluorescent kinetic assay (cleavage of peptide substrate WABC-6). In kind it is biochemical. The following applies: Activity Table, Examples 1-108; 10 nM enzyme, 25 μM substrate WABC-6, pH 4.5, room temperature. The protocol: Evaluation of BACE1 Binding Affinity of Test Compounds
Fluorescent Kinetic Assays
Dilution and mixing steps: total reaction volume: 100 μL
100 μM substrate dilution in 1×PBS was prepared, and
Fluorescence Readings: Readings at λex 320 nm and λem 420 nm are taken every 40 sec for 30 min at room temperature and the linear slope for substrate cleavage rate (vi) determined.

The IC50 is the point on the concentration scale where inhibition reaches its midpoint. A high value points to a need for much substance. What is called melting point is the temperature, or range, at which the solid turns liquid.

Chain of human BACE1 (P56817 46-501): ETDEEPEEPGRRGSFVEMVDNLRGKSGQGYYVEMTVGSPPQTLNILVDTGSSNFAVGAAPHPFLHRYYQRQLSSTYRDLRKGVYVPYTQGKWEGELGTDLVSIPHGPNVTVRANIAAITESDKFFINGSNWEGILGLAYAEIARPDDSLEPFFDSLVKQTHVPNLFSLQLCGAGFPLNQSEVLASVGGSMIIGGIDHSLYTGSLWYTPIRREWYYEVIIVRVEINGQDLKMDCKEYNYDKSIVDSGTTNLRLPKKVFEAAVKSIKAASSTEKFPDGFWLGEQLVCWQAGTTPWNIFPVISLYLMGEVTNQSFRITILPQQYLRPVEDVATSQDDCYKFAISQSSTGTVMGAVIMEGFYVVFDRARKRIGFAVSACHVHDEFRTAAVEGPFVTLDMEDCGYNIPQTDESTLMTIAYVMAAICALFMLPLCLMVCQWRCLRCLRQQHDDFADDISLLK

Turning to `C=CCC(F)c1cccc(C2(c3ccc(OC(F)F)cc3)N=C(N)N(C)C2=O)c1` (stereo not drawn) [Example 57, 2-amino-5-[4-(difluoromethoxy)phenyl]-5-[3-(1-fluorobut-3-en-1-yl)phenyl]-3-methyl-3,5-dihydro-4H-imidazol-4-one], the melting point fell in the range of 49 to 51 °C. Moreover, the IC50 against human BACE1 was 110 to 1000 nM.

As to `CN1C(=O)C(c2ccc(OC(F)F)cc2)(c2cccc(OCCCF)c2)N=C1N` (stereo not drawn) [Example 82, 2-Amino-5-[4-(difluoromethoxy)phenyl]-5-[3-(3-fluoropropox-1-yl)phenyl]-3-methyl-3,5-dihydro-4H-imidazol-4-one], the melting point lay within 161 to 162 °C. This compound also registered an IC50 at human BACE1 of under 100 nM.

`CN1C(=O)C(c2ccc(OC(F)F)cc2)(c2cccc(CCCCC#N)c2)N=C1N` (stereo not drawn) [Example 83, 5-(3-{2-Amino-4-[4-(difluoromethoxy)phenyl]-1-methyl-5-oxo-4,5-dihydro-1H-imidazol-4-yl}phenyl)pentanenitrile] gave a melting point of 65 °C. Moreover, at human BACE1, the IC50 was under 100 nM.

These data come from patent US7723368B2, “Amino-5-[4-(difluoromethoxy)phenyl]-5-phenylimidazolone compounds for the inhibition of beta-secretase” (Wyeth LLC, priority 2007, dated 2010).
